Results taken from patent US20030236212A1, “Functionalized long chain derivatives as acyl coenzyme-A mimics, compositions thereof, and methods of cholesterol management and related uses” (priority 2002, published 2003).
Read-outs that look alike come from different tables or passages of the source.

Tested on: obese female Zucker rats
Experiment: Oral daily treatment of obese female Zucker rats for 14 days (body weight, serum lipids, glucose, insulin)
Format: in vivo, rat
Set-up: HDL-C / Glucose / Insulin / NEFA / BHA / TG / TC / Non HDL-C: unit not given here
Conditions: for change in vivo at 30 mg/kg/day / change in vivo at 30 mg/kg: 30 mg/kg/day; for change in vivo at 100 mg/kg/day / change in vivo at 100 mg/kg: 100 mg/kg/day
Description: The dosing vehicle was administered to control animals in parallel experiments.
Body weight was determined daily prior to dosing. Animals were allowed free access to rodent chow and water throughout the study. Blood glucose was determined after a 6-hour fast in the afternoon without anesthesia from a tail vein. Serum was also prepared from a blood sample subsequently obtained from the orbital venous plexus (with O2/CO2 anesthesia) prior to and after one week treatment and used lipid and insulin determinations. At two weeks, blood glucose was again determined after a 6-hour fast without anesthesia from a tail vein. Soon thereafter, animals were sacrificed by CO2 inhalation in the afternoon and cardiac blood serum was collected and assessed for various lipids and insulin.

[1] = Rattus norvegicus, 336 h, obese female Zucker rats, oral daily, fourteen days, read-out: % wt. gain
[2] = Rattus norvegicus, 336 h, obese female Zucker rats, oral daily, fourteen days, read-out: BHA, Percent Change from Pre-treatment
[3] = Rattus norvegicus, 336 h, obese female Zucker rats, oral daily, fourteen days, read-out: Glucose, Percent Change from Pre-treatment
[4] = Rattus norvegicus, 336 h, obese female Zucker rats, oral daily, fourteen days, read-out: HDL-C, Percent Change from Pre-treatment
[5] = Rattus norvegicus, 336 h, obese female Zucker rats, oral daily, fourteen days, read-out: Insulin, Percent Change from Pre-treatment
[6] = Rattus norvegicus, 336 h, obese female Zucker rats, oral daily, fourteen days, read-out: NEFA, Percent Change from Pre-treatment
[7] = Rattus norvegicus, 336 h, obese female Zucker rats, oral daily, fourteen days, read-out: Non HDL-C, Percent Change from Pre-treatment
[8] = Rattus norvegicus, 336 h, obese female Zucker rats, oral daily, fourteen days, read-out: TC, Percent Change from Pre-treatment
[9] = Rattus norvegicus, 336 h, obese female Zucker rats, oral daily, fourteen days, read-out: TG, Percent Change from Pre-treatment
[10] = obese female Zucker rats, oral gavage daily 14 days, 100 mg/kg
[11] = obese female Zucker rats, oral, 14 days, 5 mg/kg/day (Table 1)

SMILES	change in vivo at 30 mg/kg/day [1] [%]	change in vivo at 30 mg/kg [2] [%]	change in vivo at 30 mg/kg [3] [%]	change in vivo at 30 mg/kg [4] [%]	change in vivo at 30 mg/kg [5] [%]	change in vivo at 30 mg/kg [6] [%]	change in vivo at 30 mg/kg [7] [%]	change in vivo at 30 mg/kg [8] [%]	change in vivo at 30 mg/kg [9] [%]	change in vivo at 100 mg/kg/day [1] [%]	change in vivo at 100 mg/kg [2] [%]	change in vivo at 100 mg/kg [3] [%]	change in vivo at 100 mg/kg [4] [%]	change in vivo at 100 mg/kg [5] [%]	change in vivo at 100 mg/kg [6] [%]	change in vivo at 100 mg/kg [7] [%]	change in vivo at 100 mg/kg [8] [%]	further results
CC(C)(CCCCOCCCCC(C)(C)COP(=O)(O)O)COP(=O)(O)O.N.N.N.N [Compound A, Phosphoric acid mono-16-(5,5-dimethyl-6-phosphonooxyhexyloxy)-2,2-dimethylhexyl] ester, tetraammonium salt]	3	141	1	228	-16	-32	71	164	-31	4	257	6	559	0	-53	11	287	change in vivo at 10 mg/kg/day (Rattus norvegicus, 336 h, obese female Zucker rats, oral daily, fourteen days, 10 mg/kg/day, read-out: % wt. gain): 9%; change in vivo at 10 mg/kg (Rattus norvegicus, 336 h, obese female Zucker rats, oral daily, fourteen days, 10 mg/kg/day, read-out: BHA, Percent Change from Pre-treatment): 102%; change in vivo at 10 mg/kg (Rattus norvegicus, 336 h, obese female Zucker rats, oral daily, fourteen days, 10 mg/kg/day, read-out: Glucose, Percent Change from Pre-treatment): -9%; change in vivo at 10 mg/kg (Rattus norvegicus, 336 h, obese female Zucker rats, oral daily, fourteen days, 10 mg/kg/day, read-out: HDL-C, Percent Change from Pre-treatment): 179%; change in vivo at 10 mg/kg (Rattus norvegicus, 336 h, obese female Zucker rats, oral daily, fourteen days, 10 mg/kg/day, read-out: Insulin, Percent Change from Pre-treatment): -7%; change in vivo at 10 mg/kg (Rattus norvegicus, 336 h, obese female Zucker rats, oral daily, fourteen days, 10 mg/kg/day, read-out: NEFA, Percent Change from Pre-treatment): 14%; change in vivo at 10 mg/kg (Rattus norvegicus, 336 h, obese female Zucker rats, oral daily, fourteen days, 10 mg/kg/day, read-out: Non HDL-C, Percent Change from Pre-treatment): 67%; change in vivo at 10 mg/kg (Rattus norvegicus, 336 h, obese female Zucker rats, oral daily, fourteen days, 10 mg/kg/day, read-out: TC, Percent Change from Pre-treatment): 115%; change in vivo at 10 mg/kg (Rattus norvegicus, 336 h, obese female Zucker rats, oral daily, fourteen days, 10 mg/kg/day, read-out: TG, Percent Change from Pre-treatment): 11%
CC(C)(CO)CCCCOC(=O)CCCCC(C)(C)CO [Compound K, 7-Hydroxy-6,6-dimethylheptanoic acid 6-hydroxy-5,5-dimethylhexyl ester]	–	–	–	–	–	–	–	–	–	11	103	-21	23	0	43	-5	12	change in vivo at 100 mg/kg [9]: 7%
CC(C)(CO)CCCCNC(=O)OCCCCC(C)(C)CO [Compound M, (6-Hydroxy-5,5-dimethylhexyl)-carbamic acid 6-hydroxy-5,5-dimethylhexyl ester]	–	–	–	–	–	–	–	–	–	20	145	2	65	26	-53	84	70	change in vivo at 100 mg/kg [9]: -4%
CC(C)(CO)CCCCNCCCCC(C)(C)CO [Compound H, 6-(6-Hydroxy-5,5-dimethylhexylamino)-2,2-dimethylhexan-1-ol]	–	–	–	–	–	–	–	–	–	–	–	–	–	–	–	–	–	change in vivo at 53 mg/kg/day (Rattus norvegicus, 336 h, obese female Zucker rats, oral daily, fourteen days, 53 mg/kg/day, read-out: % wt. gain): 16%; change in vivo at 53 mg/kg (Rattus norvegicus, 336 h, obese female Zucker rats, oral daily, fourteen days, 53 mg/kg/day, read-out: BHA, Percent Change from Pre-treatment): 48%; change in vivo at 53 mg/kg (Rattus norvegicus, 336 h, obese female Zucker rats, oral daily, fourteen days, 53 mg/kg/day, read-out: Glucose, Percent Change from Pre-treatment): -23%; change in vivo at 53 mg/kg (Rattus norvegicus, 336 h, obese female Zucker rats, oral daily, fourteen days, 53 mg/kg/day, read-out: HDL-C, Percent Change from Pre-treatment): 16%; change in vivo at 53 mg/kg (Rattus norvegicus, 336 h, obese female Zucker rats, oral daily, fourteen days, 53 mg/kg/day, read-out: Insulin, Percent Change from Pre-treatment): -49%; change in vivo at 53 mg/kg (Rattus norvegicus, 336 h, obese female Zucker rats, oral daily, fourteen days, 53 mg/kg/day, read-out: NEFA, Percent Change from Pre-treatment): -55%; change in vivo at 53 mg/kg (Rattus norvegicus, 336 h, obese female Zucker rats, oral daily, fourteen days, 53 mg/kg/day, read-out: Non HDL-C, Percent Change from Pre-treatment): -10%; change in vivo at 53 mg/kg (Rattus norvegicus, 336 h, obese female Zucker rats, oral daily, fourteen days, 53 mg/kg/day, read-out: TC, Percent Change from Pre-treatment): 5%; change in vivo at 53 mg/kg (Rattus norvegicus, 336 h, obese female Zucker rats, oral daily, fourteen days, 53 mg/kg/day, read-out: TG, Percent Change from Pre-treatment): -32%
CC(C)(CO)CCCCNC(=O)CCCCC(C)(C)CO [Compound J, 7-Hydroxy-6,6-dimethylheptanoic acid (6-hydroxy-5,5-dimethylhexyl)-amide]	11	21	18	20	-41	-38	-7	9	-10	–	–	–	–	–	–	–	–	–
CC(C)(CCCCCCOCCCCCCC(C)(C)COP(=O)(O)O)COP(=O)(O)O [Compound C]	13	123	9	-19	11	-33	52	6	22	–	–	–	–	–	–	–	–	–
CC(C)(CO)CCCCOP(=O)(O)OCCCCC(C)(C)CO [Compound L, phosphoric acid bis(5,5-dimethyl-6-hydroxy-hexyl)ester]	–	–	–	–	–	–	–	–	–	–	–	–	–	–	–	–	–	change in vivo at 80 mg/kg/day (Rattus norvegicus, 336 h, obese female Zucker rats, oral daily, fourteen days, 80 mg/kg/day, read-out: % wt. gain): 0%; change in vivo at 80 mg/kg (Rattus norvegicus, 336 h, obese female Zucker rats, oral daily, fourteen days, 80 mg/kg/day, read-out: BHA, Percent Change from Pre-treatment): 575%; change in vivo at 80 mg/kg (Rattus norvegicus, 336 h, obese female Zucker rats, oral daily, fourteen days, 80 mg/kg/day, read-out: Glucose, Percent Change from Pre-treatment): 9%; change in vivo at 80 mg/kg (Rattus norvegicus, 336 h, obese female Zucker rats, oral daily, fourteen days, 80 mg/kg/day, read-out: HDL-C, Percent Change from Pre-treatment): 8%; change in vivo at 80 mg/kg (Rattus norvegicus, 336 h, obese female Zucker rats, oral daily, fourteen days, 80 mg/kg/day, read-out: Insulin, Percent Change from Pre-treatment): 21%; change in vivo at 80 mg/kg (Rattus norvegicus, 336 h, obese female Zucker rats, oral daily, fourteen days, 80 mg/kg/day, read-out: NEFA, Percent Change from Pre-treatment): 62%; change in vivo at 80 mg/kg (Rattus norvegicus, 336 h, obese female Zucker rats, oral daily, fourteen days, 80 mg/kg/day, read-out: Non HDL-C, Percent Change from Pre-treatment): -17%; change in vivo at 80 mg/kg (Rattus norvegicus, 336 h, obese female Zucker rats, oral daily, fourteen days, 80 mg/kg/day, read-out: TC, Percent Change from Pre-treatment): -4%; change in vivo at 80 mg/kg (Rattus norvegicus, 336 h, obese female Zucker rats, oral daily, fourteen days, 80 mg/kg/day, read-out: TG, Percent Change from Pre-treatment): -13%
CN(CCOc1ccc(CC2SC(=O)NC2=O)cc1)c1ccccn1 (centres unmarked) [Compound 2, 5-{4-[2-(Methyl-pyridin-2-yl-amino)-ethoxy]-benzyl}-thiazolidine-2,4-dione, reference compound]	–	–	–	–	–	–	–	–	–	–	–	–	–	–	–	–	–	blood glucose levels (fasted obese female Zucker rats, oral gavage daily 14 days, 100 mg/kg): reduction; serum insulin relative to pretreatment (fasted obese female Zucker rats, two weeks of treatment, 100 mg/kg): reduced; liver to body weight [10]: slightly reduced; weight gain, percent of initial weight after two weeks [10]: greater than 15%; BHA [11]: 15.6 ± 0.6; Glucose [11]: −11.1 ± 4.5; HDL-C [11]: −4.6 ± 8.8; Insulin [11]: −53.3 ± 5.2; NEFA [11]: 0.034 ± 0.001; Non HDL-C [11]: −54.1 ± 5.6; TC [11]: −50.2 ± 1.8; TG [11]: 53 ± 14
